In the NIST ThermoML archive (doi:10.1016/j.tca.2012.12.008):

Columns and labels:
[1] = 101 kPa, Liquid; for viscosity: Capillary tube (Ostwald / Ubbelohde) method; for mass density: Vibrating tube method
[2] = xn = mol fraction of the nth substance listed; conditions: 101 kPa, Liquid; for viscosity: Capillary tube (Ostwald / Ubbelohde) method; for mass density: Vibrating tube method

CCCCCC(C)O (stereo not drawn) [2-heptanol]
[1]
Conditions | mass density [kg/m3] | viscosity [mPa·s]
298.15 K | 813.18 | 5.003
303.15 K | 809.26 | 4.152
308.15 K | 805.01 | 3.478
313.15 K | 801.14 | 2.853

CCCCC(C)O (stereo not drawn) [2-hexanol]
[1]
Conditions | mass density [kg/m3] | viscosity [mPa·s]
298.15 K | 810.14 | 4.101
303.15 K | 806.13 | 3.411
308.15 K | 802.06 | 2.819
313.15 K | 797.96 | 2.219

CCC(C)O (stereo not drawn) [butan-2-ol]
[1]
Conditions | mass density [kg/m3] | viscosity [mPa·s]
298.15 K | 802.7 | 3.105
303.15 K | 798.3 | 2.597
308.15 K | 793.57 | 2.153
313.15 K | 789.15 | 1.734

CCC(C)O (stereo not drawn) [butan-2-ol] + CCC(C)=O
[2], x2 = 0
Conditions | mass density [kg/m3] | viscosity [mPa·s]
298.15 K | 802.7 | 3.105
303.15 K | 798.3 | 2.597
308.15 K | 793.57 | 2.153
313.15 K | 789.15 | 1.734

CCC(C)=O [butanone]
[1]
Conditions | mass density [kg/m3] | viscosity [mPa·s]
298.15 K | 799.48 | 0.381
303.15 K | 794.63 | 0.368
308.15 K | 789.9 | 0.352
313.15 K | 785.52 | 0.339

CCC(C)=O [butanone] + CCCC(C)O
[2], x1 = 1
Conditions | mass density [kg/m3] | viscosity [mPa·s]
298.15 K | 799.48 | 0.381
303.15 K | 794.63 | 0.368
308.15 K | 789.9 | 0.352
313.15 K | 785.52 | 0.339

CCC(C)=O [butanone] + CCCCC(C)O
[2], x1 = 1
Conditions | mass density [kg/m3] | viscosity [mPa·s]
298.15 K | 799.48 | 0.381
303.15 K | 794.63 | 0.368
308.15 K | 789.9 | 0.352
313.15 K | 785.52 | 0.339

CCC(C)=O [butanone] + CCCCCC(C)O
[2], x1 = 1
Conditions | mass density [kg/m3] | viscosity [mPa·s]
298.15 K | 799.48 | 0.381
303.15 K | 794.63 | 0.368
308.15 K | 789.9 | 0.352
313.15 K | 785.52 | 0.339

CCCC(C)O (stereo not drawn) [pentan-2-ol]
[1]
Conditions | mass density [kg/m3] | viscosity [mPa·s]
298.15 K | 805.41 | 3.478
303.15 K | 801.21 | 2.801
308.15 K | 796.64 | 2.335
313.15 K | 792.51 | 1.993

CC(C)O [propan-2-ol]
[1]
Conditions | mass density [kg/m3] | viscosity [mPa·s]
298.15 K | 781.09 | 2.055
303.15 K | 776.77 | 1.788
308.15 K | 771.87 | 1.563
313.15 K | 767.37 | 1.379

CC(C)O [propan-2-ol] + CCC(C)=O
[2], x2 = 0
Conditions | mass density [kg/m3] | viscosity [mPa·s]
298.15 K | 781.09 | 2.055
303.15 K | 776.77 | 1.788
308.15 K | 771.87 | 1.563
313.15 K | 767.37 | 1.379
